Reference: patent US20180228743A1, “COMPOUNDS AND METHODS OF PROMOTING MYELINATION” (Case Western Reserve University, priority 2016, published 2018)
Where a name gives a salt, the structure may show the parent alone.

What was measured:
EpiSC-derived OPCs [1] = experiment: High-throughput screening of 3,000 bioactive small molecules for MBP+ oligodendrocyte formation from OPCs; assay type: cell-based, mouse; details: 2 μM, 72 h
Text: Plates were imaged on the Operetta High Content Imaging and Analysis system (PerkinElmer) and a set of 6 fields captured from each well resulting in an average of 1200 cells being scored per well. Analysis (PerkinElmer Harmony and Columbus software) began by identifying intact nuclei stained by DAPI; that is, those traced nuclei that were larger than 300 μm^2 in surface area. Each traced nucleus region was then expanded by 50% and cross-referenced with the […] (MBP) stain to identify oligodendrocyte nuclei, and from this the percentage of oligodendrocytes was calculated. In some experiments, the total process length of MBP+ oligodendrocytes was calculated as previously described.
EpiSC-derived OPCs were grown and expanded in poly-ornithine and laminin-coated flasks before harvesting for plating. Cells were dispensed in differentiation media supplemented with Noggin (R&D Systems; 100 ng/ml), Neurotrophin 3 (R&D Systems; 10 ng/ml), cAMP (Sigma; 50 μM), and IGF-1 (R&D Systems; 100 ng/ml)) using a Biotek EL406 Microplate Washer Dispenser (Biotek) equipped with 5 μL dispense cassette (Biotek), into poly-D-lysine/laminin (Sigma, L2020; 4 μg/ml)-coated sterile, 384-well, CellCarrier ultra plates (PerkinElmer), to a final density of 12,500 cells per well and allowed to attach for 45 min before addition of drug. A 3 mM stock of bioactive compound library in dimethylsulphoxide (DMSO) were prepared in an Abgene storage 384-well plate (ThermoFisher Scientific; AB1055). These were added to assay plates using a 50 nL solid pin tool attached to Janus automated workstation (Perkin Elmer), resulting in a final screening concentration of 2 μM. Cells were incubated at 37° C. for 1 hour and then T3 (Sigma; 40 ng/ml) was added to all wells except negative controls, to which FGF (20 ng/ml) was added instead. Negative controls and T3-alone were included in each assay plate. After incubation at 37° C. for 72 h, cells were fixed, washed and stained similar to 96-well OPC assay protocol, although all the washing steps were performed using a Biotek EL406 Microplate Washer Dispenser (Biotek) equipped with a 96-well aspiration manifold. Cells were stained with DAPI (Sigma; 1 μg/ml) and MBP antibody (Abcam, ab7349; 1:100). Plates were imaged on the Operetta High Content Imaging and Analysis system (PerkinElmer) and a set of 4 fields captured from each well resulting in an average of 700 cells being scored per well. Analysis was performed as in High-Content Imaging and Analysis, above. All plates for the primary screen were processed and analyzed simultaneously to minimize variability. Molecules causing more than 20% reduction in nuclear count relative to DMSO control wells were removed from consideration, and hits were called on the basis of largest fold-increase in percentage of MBP+ oligodendrocytes relative to DMSO controls within the same plate.

[2] = system: human induced pluripotent stem cell-derived cortical spheroids; experiment: GC/MS sterol profiling in human cortical spheroids; assay type: cell-based; details: 2 μM, 24 h
[3] = mouse; cited from earlier work
[4] = system: human glioma cells (GBM528); experiment: GC/MS sterol profiling in human glioma cell line; assay type: cell-based; details: 24 h
mouse brain = experiment: Analysis of mouse brain sterol levels (GC/MS); assay type: in vivo; details: miconazole 10 mg per kg, ifenprodil 10 mg per kg, tamoxifen 2 mg per kg; 3 days intraperitoneal dosing
Protocol: Mice were anaesthetized with isoflurane and perfused with phosphate buffered saline to remove blood from the brain. Brains were collected and flash frozen using liquid nitrogen. The samples were pulverized and 50-100 milligrams of tissue were collected for further processing. A modified Folch protocol was used for extraction of sterols. Briefly, samples were resuspended in a 2:1 chloroform/methanol mixture and homogenized. Cell debris was removed by centrifugation at 4000 g for 10 min. The solution was dried under air and resuspended in hexane with a cholesterol-D7 standard and dried again. Lipids were derivatized with 70 al of bis(trimethylsilyl)trifluoroacetamide; 2 μls were injected and analyzed by GC/MS as described above.

LPC-lesioned spinal cord = experiment: LPC focal demyelination of spinal cord, remyelination histology; assay type: in vivo, mouse; details: ifenprodil 10 mg per kg, tamoxifen 2 mg per kg, daily intraperitoneal, 8 days from day 4 after lesion
rat CYP51 = target: T1, rat CYP51 (Rattus norvegicus, UniProt Q64654); experiment: CYP51 enzymatic assay (LC/MS quantitation of FF-MAS); assay type: biochemical; details: lanosterol 50 μM, 30 minutes; read-out: IC50 for inhibition of rodent CYP51 in vitro
T1 construct: purchased Cypex, Inc
T1 sequence (Q64654 1-503): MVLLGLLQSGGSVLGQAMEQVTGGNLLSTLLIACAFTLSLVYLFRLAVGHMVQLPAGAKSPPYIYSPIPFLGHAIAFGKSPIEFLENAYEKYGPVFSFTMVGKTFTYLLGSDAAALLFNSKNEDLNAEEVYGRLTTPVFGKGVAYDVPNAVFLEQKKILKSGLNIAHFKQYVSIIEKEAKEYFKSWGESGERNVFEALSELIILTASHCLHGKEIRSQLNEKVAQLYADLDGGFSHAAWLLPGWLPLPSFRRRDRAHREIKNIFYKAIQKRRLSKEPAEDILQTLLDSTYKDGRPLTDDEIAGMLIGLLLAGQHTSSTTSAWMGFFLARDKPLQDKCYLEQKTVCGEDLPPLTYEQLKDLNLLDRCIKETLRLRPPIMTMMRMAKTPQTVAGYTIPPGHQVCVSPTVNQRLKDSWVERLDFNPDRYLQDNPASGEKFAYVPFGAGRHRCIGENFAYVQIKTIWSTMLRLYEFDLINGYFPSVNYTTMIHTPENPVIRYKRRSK
Protocol: Finally, 15 μl of each reaction/isopropanol mixture was injected onto a SCIEX Triple Quad 6500 LC-MS/MS system using an APCI ion source in positive ion mode with a Shimadzu UFLC-20AD HPLC and a Phenomenex

EpiSC-derived OPCs [5] = experiment: In vitro phenotypic screening of OPCs (MBP+ oligodendrocytes at 72 h); assay type: cell-based, mouse; details: 72 h, ketoconazole 2.5 μM (maximally effective dose)
OPCs = experiment: GC/MS-based sterol profiling in OPCs; assay type: cell-based, mouse; details: 24 h treatment (siRNA 96 h)
EBP = target: T2, EBP (Mus musculus, UniProt P70245); experiment: EBP enzymatic assay (GC/MS); assay type: biochemical; details: 10 μM, zymostenol 25 μM
T2 construct: active EBP was obtained from mouse microsomes; from tissue
T2 sequence (P70245 1-230): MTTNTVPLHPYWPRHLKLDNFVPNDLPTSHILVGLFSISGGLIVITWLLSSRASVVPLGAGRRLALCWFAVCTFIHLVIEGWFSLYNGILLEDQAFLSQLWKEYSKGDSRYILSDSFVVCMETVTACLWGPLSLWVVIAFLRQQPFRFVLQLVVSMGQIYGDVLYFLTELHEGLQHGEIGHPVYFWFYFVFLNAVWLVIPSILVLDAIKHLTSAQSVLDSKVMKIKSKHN

Structure (SMILES) | cell viability (% relative to DMS0) (EpiSC-derived OPCs [1]) [%] | cell viability (% relative to DMS0) (EpiSC-derived OPCs [1]; listed as lfenprodil tartrate) [%] | fold induction at 2 µM (EpiSC-derived OPCs [1]; Mus musculus, relative to DMSO controls of the same plate, read-out: fold-change in % MBP + oligodendrocytes) | 8,9-unsaturated sterol accumulation in human cortical spheroids [2] | blood brain barrier penetration [3] | sterol intermediate accumulation in human glioma cell line [4] | accumulation of 8,9-unsaturated sterols in brain (mouse brain) | remyelination of LPC lesion (LPC-lesioned spinal cord) | IC50 (rat CYP51) [µM] | oligodendrocyte formation in combination with ketoconazole (EpiSC-derived OPCs [5]) | sterol levels / sterol intermediate accumulation in OPCs (OPCs) | inhibition of EBP enzymatic activity (EBP)
CC(C(O)c1ccc(O)cc1)N1CCC(Cc2ccccc2)CC1 (stereo not shown) [lfenprodil Tartrate] | 103.79 | 106.02 | 4.89 | led to 8,9-unsaturated sterol accumulation | known to cross the mouse blood brain barrier | caused accumulation of the expected sterol intermediates | induced significant accumulation of 8,9-unsaturated sterols in the brain | remyelination was widespread throughout the lesion |  |  |  | 
Clc1ccc(COC(Cn2ccnc2)c2ccc(Cl)cc2Cl)c(Cl)c1 (stereo not shown) [miconazole, Miconazole] |  |  |  | led to 8,9-unsaturated sterol accumulation |  | caused accumulation of the expected sterol intermediates |  |  | 0.3 to 0.7 |  |  | 
CC/C(=C(\c1ccccc1)c1ccc(OCCN(C)C)cc1)c1ccccc1 [tamoxifen, Tamoxifen] |  |  |  |  |  | caused accumulation of the expected sterol intermediates |  | remyelination was widespread throughout the lesion |  | did not enhance differentiation above levels seen for ketoconazole alone | induced accumulation of zymostenol and zymosterol and decreased basal sterol levels | clear inhibition
